In patent US20070082870A1, “Pharmaceutical formulations of cyclodextrins and antifungal azole compounds” (priority 2005, published 2007):
In brackets after ≈: the same amount, converted by molar mass.

What was measured:
[1] = Equilibrium solubility of clotrimazole in water, 0 to ca. 25 wt % cyclodextrin; format: physicochemical
Procedure: (§1) The following is a typical procedure for determining the solubility of a drug in a given solvent. To each well of a 2 mL 96-well polypropylene mixing plate was added excess drug (ca. 5-10 mg). The drug was typically added by using a metal loading plate having cavities that will hold an approximate predetermined amount of drug. The cavities on the loading plate were arranged so that they corresponded to the individual wells of the 96-well mixing plate. A line of drug was placed at one end of the loading plate and a glass plate was used to distribute the drug into each cavity. The 96-well mixing plate was placed on the loading plate then inverted and tapped so that the drug dropped into the appropriate well of the mixing plate.
(§2) To each well of the pre-loaded 96-well mixing plate was added 300-500 μL of water or buffer (blanks with no CD) or the appropriate CD solution. […]
(§3) The drug content in each well can be determined by a number of methods. […] Typically, 10-20 μL of drug solution was transferred to the corresponding well of a 96-well measurement plate (UV-STAR plates from Greiner with a spectral range of 190-400 nm) and diluted with 1/1 water/ethanol so that the absorbance was in the linear response range. Measurements were made using a SpectraMax Plus 384 Molecular Devices multi-well plate reader. Absorbance was converted to drug concentration using the appropriate absorbtivity for the drug. […]

[2] = Equilibrium solubility of ketoconazole in water and buffers at 10 wt % HBenBCD; format: physicochemical
Procedure: as §1, with “The drug was typically added by using a metal loading plate having cavities that will hold an approximate predetermined amount of drug.” left out
(§4) To each well of the pre-loaded 96-well mixing plate was added 300-500 μL of water or buffer (blanks with no CD) or the appropriate CD solution. Typically, each determination was in triplicate. The blanks were used to determine the intrinsic solubility (So) of drug in that solution and the well containing the CD solutions were used to determine the solubility of drug due to CD (Sw). After addition of the stock solutions, the plate was sealed using aluminum foil with a non-volatile adhesive on one surface. The plate was placed on a rotary shaking plate (Helidolph Titramax 1000) and the plate was shaken at 800-1200 rpm at 23° C.±2° for 48-72 h. During the mixing period, the plate was inspected to insure that each well contained undissolved, excess drug. Additional drug was added if necessary.
(§5) Following the mixing period, the solutions in each well were transferred to the corresponding wells of a 96-well 2 mL multiscreen filter plate using a multi-channel pipette. The bottom of each well was a hydrophilic membrane (Millipore Corporation). The filter plate was placed on top of a vacuum manifold and the solutions were filtered at ca. 20 mm Hg into the corresponding wells of a 2 mL storage plate. The duration of the filtration period was typically no more than 60 seconds. The storage plate was then sealed with a silicon mat and samples were removed for analysis as appropriate.
The drug content in each well can be determined by a number of methods. Ultraviolet spectroscopy (UV) or high pressure liquid chromatography (HPLC) is preferred. In the present example, UV spectroscopy was used. […] Measurements were made using a SpectraMax Plus 384 Molecular Devices multi-well plate reader. Absorbance was converted to drug concentration using the appropriate absorbtivity for the drug. The drug concentrations were then exported to the appropriate software package for final analysis.
The general protocol described in Example 1 was utilized to determine the equilibrium solubility of ketoconazole in water and buffers at 10 wt % HBenBCD concentration.

[3] = format: physicochemical; conditions: pH 3
Procedure: as §1, §2, §3

physchem = format: physicochemical; conditions: for solubility: 23 °C, thermodynamic from solid
Procedure: as §1, §4, §5
(§6) The drug content in each well can be determined by a number of methods. Ultraviolet spectroscopy (UV) or high pressure liquid chromatography (HPLC) is preferred. In the present example, UV spectroscopy was used. Typically, 10-20 μL of drug solution was transferred to the corresponding well of a 96-well measurement plate (UV-STAR plates from Greiner with a spectral range of 190-400 nm) and diluted with 1/1 water/ethanol so that the absorbance was in the linear response range. Measurements were made using a SpectraMax Plus 384 Molecular Devices multi-well plate reader. Absorbance was converted to drug concentration using the appropriate absorbtivity for the drug. The drug concentrations were then exported to the appropriate software package for final analysis.
The general protocol described in Example 1 was utilized to determine the equilibrium solubility of voriconazole in water and buffers at 10 wt % HBenBCD concentration.

[4] = Equilibrium solubility of itraconazole in water and pH 3 phosphate buffer, 0 to 25 wt % cyclodextrin; format: physicochemical
Procedure: as §1, §2, §3

[5] = Equilibrium solubility of itraconazole in water and buffers at 10 wt % cyclodextrin; format: physicochemical; conditions: water
Procedure: Stock solutions of cyclodextrins were prepared by dissolving an accurately weighed amount of previously dried cyclodextrin in water or in buffer to give a final cyclodextrin concentration of 10 wt %. In this example, the cyclodextrins were HBenBCD, HPBCD, and SBEBCD. The buffers were 0.05 M pH3 phosphate, 0.05 M pH 3 citrate, and 0.05 M pH 4.8 acetate.
as §1, §4, §5, §6

Clc1ccccc1C(c1ccccc1)(c1ccccc1)n1ccnc1 [clotrimazole]
Sw/So for HBenBCD, fold greater than that for HPBCD ([1]; ca. 25 wt % CD): 2.4 X | Sw/So ([1]; ca. 25 wt % HBenBCD): 12.3

CC(=O)N1CCN(c2ccc(OC[C@H]3CO[C@](Cn4ccnc4)(c4ccc(Cl)cc4Cl)O3)cc2)CC1 (racemic) [ketoconazole]
Sw/So ([2]; pH 3 D,L-tartrate): 2.7 | Sw/So ([2]; pH 3 D-tartrate): 3.2 | Sw/So ([2]; pH 3 L-tartrate): 2.8 | Sw/So ([2]; pH 3 citrate): 3.3 | Sw/So ([2]; pH 3 phosphate): 4.3 | Sw/So ([2]; pH 4.8 acetate): 95.5 | Sw/So ([2]; pH 7.3 phosphate): 548.9 | Sw/So ([2]; water): 600.4

C[C@@H](c1ncncc1F)[C@](O)(Cn1cncn1)c1ccc(F)cc1F (single isomer, unassigned) [voriconazole]
more voriconazole solubilized by HBenBCD than SBEBCD [3]: 25% | Sw/So (physchem): 9.8 | solubility (physchem; pH 1.2, aqueous with cosolvent or surfactant or cyclodextrin, Sw (solubility with CD)): 10.2 mg/mL (≈ 29.2 mM) | solubility (physchem; pH 1.2, simulated gastric fluid, So (intrinsic solubility)): 3.2 mg/mL (≈ 9.16 mM) | Sw/So (physchem; pH 1.2): 3.2 | Sw/So (physchem; pH 7.3): 9.6

itraconazole
Sw/So for HBenBCD, fold greater than that for HPBCD ([4]; ca. 25 wt % CD): 4 X | Sw/So ([4]; ca. 25 wt % HBenBCD): 132 | Sw/So ([5]; 10 wt % HBenBCD): 17.2 | solubility of itraconazole due to CD (Sw) ([5]; 10 wt % HBenBCD): 0.515 ng/mL | Sw/So ([5]; 10 wt % HPBCD): 3.8 | Sw/So ([5]; 10 wt % SBEBCD): 4.2 | intrinsic solubility (So) of itraconazole ([5]; no cyclodextrin): 0.03 ng/mL
